Laboratory results published in US12291501B2 (University of Florida Research Foundation, Inc., priority 2021, dated 2025).
“And” between values parts separate entries of the source, which are not always exact repeats. Equal values may be shown once. “Also recorded” adds a separate entry of the source.

Columns and labels:
α7 nAChR [1] = target: T1, α7 nAChR (Homo sapiens, UniProt P36544); settings: earlier reports / Papke et al. (2022); cited from earlier work
T1 construct: expressed in transfected cells; host or cells: Xenopus laevis oocytes, injected with in vitro transcribed RNA
T1 sequence (P36544 23-502): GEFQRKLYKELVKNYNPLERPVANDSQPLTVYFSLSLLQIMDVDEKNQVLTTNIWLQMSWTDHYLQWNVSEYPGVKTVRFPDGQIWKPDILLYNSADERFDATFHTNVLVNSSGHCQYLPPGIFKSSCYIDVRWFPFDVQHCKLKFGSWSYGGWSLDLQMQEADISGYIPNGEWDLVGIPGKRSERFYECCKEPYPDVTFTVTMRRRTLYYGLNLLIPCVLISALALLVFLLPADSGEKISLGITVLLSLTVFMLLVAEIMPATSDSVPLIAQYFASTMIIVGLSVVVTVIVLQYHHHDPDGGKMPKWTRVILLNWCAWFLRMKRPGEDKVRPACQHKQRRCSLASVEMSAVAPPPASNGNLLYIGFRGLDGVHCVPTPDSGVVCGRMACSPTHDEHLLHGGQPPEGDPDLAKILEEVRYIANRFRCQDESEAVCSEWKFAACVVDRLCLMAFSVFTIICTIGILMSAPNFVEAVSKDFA

α9 nAChR = target: T2, α9 nAChR (Homo sapiens, UniProt Q9UGM1); assay: Two-electrode voltage-clamp, agonist concentration-response, α9 nAChR in Xenopus oocytes; assay type: cell-based; settings: for EC50 / α9 Imax: peak currents, ± standard error of fit; for α9 Imax: relative to ACh (Imax = 1)
T2 construct: expressed in transfected cells; host or cells: Xenopus laevis oocytes, injected with in vitro transcribed RNA
T2 sequence (Q9UGM1 26-479 limits assumed): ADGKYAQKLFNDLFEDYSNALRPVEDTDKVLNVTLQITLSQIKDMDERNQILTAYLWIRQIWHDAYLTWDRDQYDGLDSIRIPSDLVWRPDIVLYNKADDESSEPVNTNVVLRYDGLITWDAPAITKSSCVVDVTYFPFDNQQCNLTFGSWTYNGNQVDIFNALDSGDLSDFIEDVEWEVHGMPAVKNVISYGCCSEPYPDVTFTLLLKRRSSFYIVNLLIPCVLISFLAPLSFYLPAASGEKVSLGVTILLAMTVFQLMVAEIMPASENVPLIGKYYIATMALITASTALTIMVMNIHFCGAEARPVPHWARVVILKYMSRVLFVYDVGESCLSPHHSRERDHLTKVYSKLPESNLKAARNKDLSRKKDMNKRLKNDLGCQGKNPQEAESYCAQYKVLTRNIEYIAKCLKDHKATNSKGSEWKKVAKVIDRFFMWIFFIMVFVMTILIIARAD
From the text: (§1) Electrophysiology: Xenopus oocytes were microinjected with RNAs to produce functional nAChR which were characterized by two-electrode voltage-clamp measurements. FIGS. 5A-7D present concentration-response curves for the new compounds evaluated with α7, α9, and α9α10 receptors. Table 1 presents the values for Imax and EC50 with these receptors and Table 2 summarizes inhibition data for the compounds with heteromeric nAChR.
(§2) Molecular Biology: Plasmid DNAs encoding the human α7 and heteromeric nAChR were obtained from Jon Lindstrom (University of Pennsylvania, Philadelphia, PA). Mouse muscle subunit clones were obtained from Jim Boulter (Salk Institute, La Jolla CA) and Paul Gardner (Dartmouth, Hanover NH). The human resistance-to-cholinesterase 3 ([…]) clone was obtained from Millet Treinin (Hebrew University, Jerusalem, Israel) and RNA co-injected with α7 to improve the level and speed of receptor expression without affecting their pharmacological properties. Plasmid DNA encoding the human α10 nAChR was obtained from J. Michael McIntosh. Plasmid DNA encoding the human α9 nAChR and the human receptor-associated protein of the synapse (RAPSYN) with codon optimization for expression in Xenopus laevis were obtained from Katrin Richter. RAPSYN RNA was co-injected with the α9 and α10 to improve expression (Richter et al., (2022) Front. Cell Neurosci. 16: 779081). After linearization and purification of the plasmid DNAs, RNAs were prepared using the mMessage mMachine in vitro RNA transcription kit (Ambion, Austin, TX). Frogs were maintained in the Animal Care Service facility of the University of Florida, and all procedures were approved by the University of Florida Institutional Animal Care and Use Committee (approval number 202002669). In brief, the animals were first anesthetized for 15-20 min in 1.5 l frog tank water containing 1 g of MS-222 buffered with sodium bicarbonate. Oocytes were obtained surgically from mature female Xenopus laevis (Nasco, Ft. Atkinson WI, USA) and treated with 1.4 mg/ml type 1 collagenase (Worthington Biochemicals, Freehold NJ, USA) for 2-4 h at rt in Ca2+-free Barth's solution (88 mM NaCl, 1 mM KCl, 2.38 mM NaHCO3, 0.82 mM MgSO4, 15 mM HEPES, and 12 mg/l tetracycline, pH 7.6) to remove the ovarian tissue and the follicular layers. Stage V oocytes were injected with 4-6 ng CHRNA7 RNA and 2-3 ng RIC3 RNA (2:1 ratio) in 50 nl water, or with 12 ng CHRNA9 RNA and 3 ng RAPSN RNA, or along with 12 ng CHRNA10 RNA in 50 nl water. Oocytes were maintained in Barth's solution containing 0.32 mM Ca(NO3)2 and 0.41 mM CaCl2, and recordings were conducted 2-20 days after injection.
(§3) Electrophysiology: Two-electrode voltage-clamp experiments were conducted using OpusXpress 6000A (Molecular Devices, Union City CA, USA). Both the voltage and current electrodes were filled with 3 M KCl. Oocytes were voltage-clamped at −60 mV at rt. The oocytes were perfused with Ringer's solution (115 mM NaCl, 2.5 mM KCl, 1.8 mM CaCl2, 10 mM HEPES, 1 μM atropine, pH 7.2) at 2 ml/min. […] Drug applications were 12 s in duration followed by 181 s washout periods.
(§4) The responses were calculated as both peak-current amplitudes and net charge. Data were collected at 50 Hz, filtered at 20 Hz, and analyzed by Clampfit (Molecular Devices) and Excel (Microsoft, Redmond, WA, United States). Data are expressed as means±SEM from at least five oocytes for each experiment and plotted with Kaleidagraph 4.5.2 (Abelbeck Software, Reading, PA, United States). Each episode of data acquisition was a total of 210 s and included an initial 30 s period used to define the baseline for the drug-evoked responses. After 30 s, drugs were applied, and the following 120 s were defined as the drug response period for analysis. […] The values for the curve fits were generated using the Levenberg-Marquardt algorithm to obtain the best Chi-Square fit to the Hill equation using the Kaleidagraph 4.5.2 plotting program. […]

α9α10 nAChR = target: T3, α9α10 nAChR (Homo sapiens, UniProt Q9GZZ6+Q9UGM1); assay: Two-electrode voltage-clamp, agonist concentration-response, α9α10 nAChR in Xenopus oocytes; assay type: cell-based; settings: for EC50 / α9α10 Imax: peak currents, ± standard error of fit; for α9α10 Imax: relative to ACh (Imax = 1)
T3 construct: expressed in transfected cells; host or cells: Xenopus laevis oocytes, injected with in vitro transcribed RNA
T3 sequence (Q9UGM1 26-479 limits assumed): as above
T3 sequence (Q9GZZ6 25-450): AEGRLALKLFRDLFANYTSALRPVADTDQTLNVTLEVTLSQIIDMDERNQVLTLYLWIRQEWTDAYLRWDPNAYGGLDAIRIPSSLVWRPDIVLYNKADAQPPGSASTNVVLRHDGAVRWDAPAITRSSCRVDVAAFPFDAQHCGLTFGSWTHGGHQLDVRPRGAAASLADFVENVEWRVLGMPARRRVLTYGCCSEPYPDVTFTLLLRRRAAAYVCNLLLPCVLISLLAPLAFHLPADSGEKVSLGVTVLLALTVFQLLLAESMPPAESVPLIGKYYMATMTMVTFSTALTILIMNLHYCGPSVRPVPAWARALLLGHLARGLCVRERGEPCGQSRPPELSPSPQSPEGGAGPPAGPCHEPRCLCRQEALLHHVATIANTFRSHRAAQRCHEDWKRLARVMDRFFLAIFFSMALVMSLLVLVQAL
From the text: as §1, §2, §3, §4

α1β1εδ nAChR = target: T4, α1β1εδ nAChR (Mus musculus, UniProt P02716+P04756+P09690+P20782); assay: Inhibition of control ACh responses by co-application, muscle α1β1εδ nAChR in oocytes; assay type: cell-based; settings: 3 μM compound co-applied with ACh; fraction of control ACh response
T4 construct: expressed in transfected cells; host or cells: Xenopus laevis oocytes
T4 sequence (P04756 21-457): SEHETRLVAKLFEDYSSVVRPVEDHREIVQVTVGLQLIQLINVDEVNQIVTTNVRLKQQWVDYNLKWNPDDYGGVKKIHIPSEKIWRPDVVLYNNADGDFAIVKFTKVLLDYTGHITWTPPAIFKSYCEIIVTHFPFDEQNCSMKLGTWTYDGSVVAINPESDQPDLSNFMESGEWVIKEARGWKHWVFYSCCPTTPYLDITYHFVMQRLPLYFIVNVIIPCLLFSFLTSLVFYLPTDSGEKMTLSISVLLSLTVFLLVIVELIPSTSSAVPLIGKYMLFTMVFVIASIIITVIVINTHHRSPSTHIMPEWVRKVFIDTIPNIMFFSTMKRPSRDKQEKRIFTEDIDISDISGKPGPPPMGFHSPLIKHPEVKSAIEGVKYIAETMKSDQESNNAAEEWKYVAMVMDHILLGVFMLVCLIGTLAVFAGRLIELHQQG
T4 sequence (P09690 24-501): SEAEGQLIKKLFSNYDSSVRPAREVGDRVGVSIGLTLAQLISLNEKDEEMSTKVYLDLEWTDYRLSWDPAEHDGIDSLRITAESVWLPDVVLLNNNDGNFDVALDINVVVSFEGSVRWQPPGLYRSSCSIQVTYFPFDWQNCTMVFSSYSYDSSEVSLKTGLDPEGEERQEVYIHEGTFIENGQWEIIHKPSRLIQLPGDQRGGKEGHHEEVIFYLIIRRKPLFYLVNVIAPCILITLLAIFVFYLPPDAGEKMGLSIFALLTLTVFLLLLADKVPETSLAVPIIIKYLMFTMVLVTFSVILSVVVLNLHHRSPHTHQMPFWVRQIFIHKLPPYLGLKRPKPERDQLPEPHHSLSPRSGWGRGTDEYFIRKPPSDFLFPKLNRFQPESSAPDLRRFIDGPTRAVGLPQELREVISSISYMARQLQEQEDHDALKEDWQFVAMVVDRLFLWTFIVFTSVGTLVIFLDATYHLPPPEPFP
T4 sequence (P20782 21-493): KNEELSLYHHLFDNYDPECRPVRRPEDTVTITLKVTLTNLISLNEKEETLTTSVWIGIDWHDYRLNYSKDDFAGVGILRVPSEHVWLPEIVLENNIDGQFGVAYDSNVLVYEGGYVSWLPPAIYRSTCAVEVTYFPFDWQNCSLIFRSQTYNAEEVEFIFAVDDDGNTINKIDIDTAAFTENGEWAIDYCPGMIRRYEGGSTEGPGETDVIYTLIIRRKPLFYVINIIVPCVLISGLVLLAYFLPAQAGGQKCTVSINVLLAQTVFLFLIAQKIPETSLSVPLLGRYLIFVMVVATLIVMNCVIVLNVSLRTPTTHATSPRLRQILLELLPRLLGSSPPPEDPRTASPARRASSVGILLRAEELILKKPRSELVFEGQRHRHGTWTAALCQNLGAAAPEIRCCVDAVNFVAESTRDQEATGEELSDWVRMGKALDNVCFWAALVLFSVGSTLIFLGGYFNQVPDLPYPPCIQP
T4 sequence (P02716 25-520): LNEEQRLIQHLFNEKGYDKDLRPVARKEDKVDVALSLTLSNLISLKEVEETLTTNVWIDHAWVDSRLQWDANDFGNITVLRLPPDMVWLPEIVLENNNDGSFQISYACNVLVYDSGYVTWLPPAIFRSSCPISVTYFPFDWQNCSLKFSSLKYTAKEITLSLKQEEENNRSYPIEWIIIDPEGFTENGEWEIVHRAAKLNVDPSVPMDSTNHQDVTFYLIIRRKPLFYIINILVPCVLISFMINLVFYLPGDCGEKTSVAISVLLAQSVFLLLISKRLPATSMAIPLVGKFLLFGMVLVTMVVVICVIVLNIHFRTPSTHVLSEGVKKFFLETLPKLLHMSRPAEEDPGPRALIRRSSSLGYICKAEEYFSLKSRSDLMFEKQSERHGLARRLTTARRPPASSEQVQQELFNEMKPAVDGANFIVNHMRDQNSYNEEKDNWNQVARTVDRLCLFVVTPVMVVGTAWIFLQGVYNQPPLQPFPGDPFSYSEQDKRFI
Protocol: (§5) Initial profiling against heteromeric receptors: The test compounds for their ability to activate or inhibit other nAChR subtypes were evaluated. Agonist activity was evaluated by applying the compounds at 100 or 30 μM to human α4β2 and α3β4 as well as to mouse muscle α1β1εδ nAChR expressed in Xenopus oocytes. […] The inhibitory activity was generally low (Table 3).
as §2, §3
(§6) The responses were calculated as both peak-current amplitudes and net charge. Data were collected at 50 Hz, filtered at 20 Hz, and analyzed by Clampfit (Molecular Devices) and Excel (Microsoft, Redmond, WA, United States). Data are expressed as means±SEM from at least five oocytes for each experiment and plotted with Kaleidagraph 4.5.2 (Abelbeck Software, Reading, PA, United States). Each episode of data acquisition was a total of 210 s and included an initial 30 s period used to define the baseline for the drug-evoked responses. After 30 s, drugs were applied, and the following 120 s were defined as the drug response period for analysis. […] The values for the curve fits were generated using the Levenberg-Marquardt algorithm to obtain the best Chi-Square fit to the Hill equation using the Kaleidagraph 4.5.2 plotting program. The errors in the tables are the calculated standard errors of the fit parameters based on the goodness of fit.

α7 nAChR [2] = target: T1, α7 nAChR; assay: Two-electrode voltage-clamp, agonist concentration-response, α7 nAChR in Xenopus oocytes; assay type: cell-based; settings: for EC50 / α7 Imax: net charge, ± standard error of fit; for α7 Imax: relative to ACh (Imax = 1)
From the text: as §1
(§7) Molecular Biology: Plasmid DNAs encoding the human α7 and heteromeric nAChR were obtained from Jon Lindstrom (University of Pennsylvania, Philadelphia, PA). Mouse muscle subunit clones were obtained from Jim Boulter (Salk Institute, La Jolla CA) and Paul Gardner (Dartmouth, Hanover NH). […] Plasmid DNA encoding the human α10 nAChR was obtained from J. Michael McIntosh. Plasmid DNA encoding the human α9 nAChR and the human receptor-associated protein of the synapse (RAPSYN) with codon optimization for expression in Xenopus laevis were obtained from Katrin Richter. […] After linearization and purification of the plasmid DNAs, RNAs were prepared using the mMessage mMachine in vitro RNA transcription kit (Ambion, Austin, TX). […] Oocytes were maintained in Barth's solution containing 0.32 mM Ca(NO3)2 and 0.41 mM CaCl2, and recordings were conducted 2-20 days after injection.
(§8) Electrophysiology: Two-electrode voltage-clamp experiments were conducted using OpusXpress 6000A (Molecular Devices, Union City CA, USA). Both the voltage and current electrodes were filled with 3 M KCl. Oocytes were voltage-clamped at −60 mV at rt.
as §6

α3β4 nAChR = target: T5, α3β4 nAChR (Homo sapiens, UniProt P30926+P32297); assay: Inhibition of control ACh responses by co-application, α3β4 nAChR in oocytes; assay type: cell-based; settings: 3 μM compound co-applied with ACh; fraction of control ACh response
T5 construct: expressed in transfected cells; host or cells: Xenopus laevis oocytes
Protocol: as §5, §2, §3, §6

α4β2 nAChR = target: T6, α4β2 nAChR (Homo sapiens, UniProt P17787+P43681); assay: Inhibition of control ACh responses by co-application, α4β2 nAChR in oocytes; assay type: cell-based; settings: 3 μM compound co-applied with ACh; fraction of control ACh response
T6 construct: expressed in transfected cells; host or cells: Xenopus laevis oocytes
T6 sequence (P43681 29-627 limits assumed): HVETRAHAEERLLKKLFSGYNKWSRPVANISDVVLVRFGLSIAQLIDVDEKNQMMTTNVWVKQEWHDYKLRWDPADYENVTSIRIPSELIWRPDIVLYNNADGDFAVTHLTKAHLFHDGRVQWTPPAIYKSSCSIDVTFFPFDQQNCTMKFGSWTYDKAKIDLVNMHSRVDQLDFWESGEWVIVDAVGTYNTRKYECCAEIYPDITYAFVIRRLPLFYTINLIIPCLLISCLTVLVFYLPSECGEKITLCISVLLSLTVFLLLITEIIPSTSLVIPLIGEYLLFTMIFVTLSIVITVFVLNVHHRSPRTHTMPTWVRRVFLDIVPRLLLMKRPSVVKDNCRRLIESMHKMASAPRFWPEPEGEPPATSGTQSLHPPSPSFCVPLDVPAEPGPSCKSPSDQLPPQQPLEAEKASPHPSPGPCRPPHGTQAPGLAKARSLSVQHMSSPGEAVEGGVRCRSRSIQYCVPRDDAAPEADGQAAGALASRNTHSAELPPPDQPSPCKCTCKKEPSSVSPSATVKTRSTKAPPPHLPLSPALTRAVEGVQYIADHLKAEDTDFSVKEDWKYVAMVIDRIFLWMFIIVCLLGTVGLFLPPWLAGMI
T6 sequence (P17787 26-502): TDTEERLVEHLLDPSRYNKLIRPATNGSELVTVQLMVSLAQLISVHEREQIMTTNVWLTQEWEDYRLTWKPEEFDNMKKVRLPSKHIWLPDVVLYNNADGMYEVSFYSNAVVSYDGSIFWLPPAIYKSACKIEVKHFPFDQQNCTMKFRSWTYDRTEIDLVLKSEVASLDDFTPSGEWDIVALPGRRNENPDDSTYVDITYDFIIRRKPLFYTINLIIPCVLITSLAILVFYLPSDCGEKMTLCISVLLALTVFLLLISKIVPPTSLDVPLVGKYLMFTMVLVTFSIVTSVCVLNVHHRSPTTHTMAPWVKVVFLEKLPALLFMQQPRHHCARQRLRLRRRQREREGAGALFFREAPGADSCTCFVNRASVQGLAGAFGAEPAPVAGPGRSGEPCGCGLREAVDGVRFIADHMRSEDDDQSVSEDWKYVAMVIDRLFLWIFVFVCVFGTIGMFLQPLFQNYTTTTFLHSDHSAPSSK
Protocol: as §5, §2, §3, §6

α7 nAChR [3] = target: T1, α7 nAChR; assay: α7 responses to drugs co-applied with the PAM PNU-120596 (silent agonism); assay type: cell-based; settings: for Response co-applied with PNU-120596 relative to the ACh controls: 30 μM compound + 10 μM PNU-120596, relative to ACh alone controls; for Response co-applied with PNU-120596, normalized to ACh co-applied with PNU-120596: drug 30 μM + 10 μM PNU-120596, normalized to 30 μM ACh + 10 μM PNU-120596
From the text: as §7, §8, §6

[4] = 3e vs larger ammonium analogs, 3h relative to 3g

Row | SMILES | Agonist character at α7 (α7 nAChR [1]) | Agonist character / efficacy at α9 (α9 nAChR) | Fold loss of potency at α9 relative to comparator compound (α9 nAChR; [4]) [fold] | EC50 (α9 nAChR) [nM] | α9 Imax (α9 nAChR) | Agonist character / efficacy at α9α10 (α9α10 nAChR) | Fold loss of potency at α9α10 relative to comparator compound (α9α10 nAChR; [4]) [fold] | EC50 (α9α10 nAChR) [nM] | α9α10 Imax (α9α10 nAChR) | Effect of co-application on the control ACh responses, α1β1εδ (α1β1εδ nAChR) | Agonist character / efficacy at α7 (α7 nAChR [2]) | Fold loss of potency at α7 relative to comparator compound (α7 nAChR [2]; 3h compared with 3g) [fold] | EC50 (α7 nAChR [2]) [nM] | α7 Imax (α7 nAChR [2]) | Effect of co-application on the control ACh responses, α3β4 (α3β4 nAChR) | Effect of co-application on the control ACh responses, α4β2 (α4β2 nAChR) | Response co-applied with PNU-120596 relative to the ACh controls (α7 nAChR [3]) | Response co-applied with PNU-120596, normalized to ACh co-applied with PNU-120596 (α7 nAChR [3])
1 | C[N+]1(C)CCCCC1 [diM-piperidinium, reference compound] | essentially a full agonist |  |  |  |  |  |  |  |  |  |  |  |  |  |  |  |  | 
2 | CC[N+]1(CC)CCN(c2ccc(-n3cccn3)cc2)CC1.[I-] [Compound 3h, 4-(4-(1H-pyrazol-1-yl)phenyl)-1,1-diethylpiperazin-1-ium iodide] |  | full agonist | 3 | 1490 ± 240 | 1.01 ± 0.04 | partial agonist | 3 | 2000 ± 800 | 0.59 ± 0.05 | 0.590 ± 0.062 | very weak partial agonists | 10 | 18000 ± 600 | 0.088 ± 0.001 and 0.088 | 0.736 ± 0.034 | 0.913 ± 0.026 | approximately 4 times | 0.17
3 | CC[N+]1(CC)CCN(c2ccc(-n3cccc3)cc2)CC1.[I-] [Compound 3i, 4-(4-(1H-pyrrol-1-yl)phenyl)-1,1-diethylpiperazin-1-ium iodide] |  | reduced efficacy; also recorded: weakened partial agonist |  | 1120 ± 250 | 0.27 ± 0.01 | weakened partial agonist |  | 1500 ± 600 | 0.17 ± 0.01 | 0.691 ± 0.094 | reduced efficacy |  | 27000 ± 4000 | 0.041 ± 0.002 and 0.041 | 0.387 ± 0.057 | 0.709 ± 0.086 | ~2 times | 0.08
4 | CC[N+]1(CC)CCCCC1 [diE-piperidinium, reference compound] | silent agonist |  |  |  |  |  |  |  |  |  |  |  |  |  |  |  |  | 
